One test deals with T1, 15-lipoxygenase (Homo sapiens, UniProt P16050).
T1 sequence (P16050 1-662): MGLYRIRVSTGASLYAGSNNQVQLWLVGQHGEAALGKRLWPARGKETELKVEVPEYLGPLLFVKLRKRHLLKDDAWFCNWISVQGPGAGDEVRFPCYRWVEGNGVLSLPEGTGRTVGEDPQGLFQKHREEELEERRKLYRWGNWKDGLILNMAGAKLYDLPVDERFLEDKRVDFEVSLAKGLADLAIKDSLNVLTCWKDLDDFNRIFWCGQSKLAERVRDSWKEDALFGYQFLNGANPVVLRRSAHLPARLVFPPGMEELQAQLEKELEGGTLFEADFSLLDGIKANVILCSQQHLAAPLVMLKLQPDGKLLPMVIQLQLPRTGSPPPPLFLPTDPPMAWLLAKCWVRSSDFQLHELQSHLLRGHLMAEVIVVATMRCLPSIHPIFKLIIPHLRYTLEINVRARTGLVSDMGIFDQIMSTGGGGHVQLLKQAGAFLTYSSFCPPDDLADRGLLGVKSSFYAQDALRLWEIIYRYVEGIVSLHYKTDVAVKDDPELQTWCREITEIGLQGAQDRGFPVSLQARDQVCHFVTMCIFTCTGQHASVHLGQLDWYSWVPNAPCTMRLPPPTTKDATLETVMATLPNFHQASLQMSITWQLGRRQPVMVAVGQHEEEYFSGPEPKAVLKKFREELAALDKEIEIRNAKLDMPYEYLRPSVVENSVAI
Kind of test: 15-lipoxygenase inhibition assay. In kind it is biochemical. The following applies: 25 μM arachidonic acid, 30 °C, 5 min. On the procedure: (§1) Figure 6 Inhibition of various lipoxygenase and cyclooxygenase activities by liguroside A. Reactions were carried out under the standard conditions in the presence of liguroside A at various concentrations and the products were quantified, using a reverse-phase HPLC. Relative enzyme activities of the 15-lipoxygenase-1 (closed circles), platelet-type 12-lipoxygenase (open circles), 5-lipoxygenase (open lozenges), cyclooxygenase-1 (open triangles), and cyclooxygenase-2 (closed triangles), as compared to the activity without inhibitors, are shown.
(§2) The lipoxygenase and cyclooxygenase reactions were carried out, as described previously. […] The products extracted with ice-cold diethyl ether were analyzed by a reverse-phase HPLC, using a Waters Alliance system equipped with a COSMOSIL 5C18-MS-II column (5-μm particle, 250 × 4.6 mm i.d., Nacalai), with a solvent system of methanol-water-acetic acid (80:20:0.01, v/v), at a flow rate of 1 mL/min, as previously described. Absorption at 235 nm was continuously monitored, using a Waters 2489 UV/Visible detector (Waters, Milford, MA, USA). Protein concentration was determined using a bicinchoninic acid protein assay kit (Thermo Fisher Scientific, Waltham, MA, USA), with bovine serum albumin as a standard.

The target in another test is cyclooxygenase-1 (Homo sapiens, UniProt P23219). Kind of test: cyclooxygenase-1 inhibition assay. Type of test: biochemical. The following applies: 25 μM linoleic acid, 24 °C, 5 min. On the procedure: as §1, §2
cyclooxygenase-1, sequence (P23219 24-599, species assumed): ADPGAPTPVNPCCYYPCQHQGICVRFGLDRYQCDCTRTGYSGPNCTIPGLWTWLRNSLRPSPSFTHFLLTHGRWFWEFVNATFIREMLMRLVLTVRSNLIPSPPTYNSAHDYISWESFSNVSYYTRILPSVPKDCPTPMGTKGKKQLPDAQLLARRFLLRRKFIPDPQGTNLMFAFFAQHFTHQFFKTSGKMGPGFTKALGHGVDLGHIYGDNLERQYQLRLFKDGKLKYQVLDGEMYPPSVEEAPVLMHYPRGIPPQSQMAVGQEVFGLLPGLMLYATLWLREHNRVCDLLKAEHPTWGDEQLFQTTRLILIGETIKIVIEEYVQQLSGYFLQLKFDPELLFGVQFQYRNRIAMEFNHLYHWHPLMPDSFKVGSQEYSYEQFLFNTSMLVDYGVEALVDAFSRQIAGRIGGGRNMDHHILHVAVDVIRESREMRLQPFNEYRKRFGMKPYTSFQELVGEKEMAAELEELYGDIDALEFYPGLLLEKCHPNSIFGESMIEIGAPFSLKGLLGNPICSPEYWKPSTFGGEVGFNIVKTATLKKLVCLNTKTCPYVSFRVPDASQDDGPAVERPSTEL
The next test concerns the target T2, cyclooxygenase-2 (Homo sapiens, UniProt P35354).
T2 sequence (P35354 18-604): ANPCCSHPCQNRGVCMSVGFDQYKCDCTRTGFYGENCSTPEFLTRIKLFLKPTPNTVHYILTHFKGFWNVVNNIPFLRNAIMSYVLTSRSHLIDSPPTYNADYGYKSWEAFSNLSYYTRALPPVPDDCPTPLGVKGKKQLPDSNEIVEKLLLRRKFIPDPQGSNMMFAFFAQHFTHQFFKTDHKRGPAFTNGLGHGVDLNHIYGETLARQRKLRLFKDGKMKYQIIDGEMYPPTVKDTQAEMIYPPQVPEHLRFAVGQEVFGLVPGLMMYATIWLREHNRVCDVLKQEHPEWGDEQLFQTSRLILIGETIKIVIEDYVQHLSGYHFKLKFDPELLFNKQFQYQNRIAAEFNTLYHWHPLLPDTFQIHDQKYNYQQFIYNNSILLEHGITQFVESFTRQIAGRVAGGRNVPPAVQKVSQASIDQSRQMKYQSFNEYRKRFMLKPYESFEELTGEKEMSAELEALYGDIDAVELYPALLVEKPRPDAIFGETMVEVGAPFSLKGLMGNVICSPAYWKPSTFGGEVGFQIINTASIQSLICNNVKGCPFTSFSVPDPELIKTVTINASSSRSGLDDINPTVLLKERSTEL
Kind of test: cyclooxygenase-2 inhibition assay. In kind it is biochemical. The following applies: 25 μM linoleic acid, 24 °C, 5 min. How it is done: as §1, §2

The target in test [1] is T3, platelet-type 12-lipoxygenase (Homo sapiens, UniProt P18054).
T3 sequence (P18054 1-663): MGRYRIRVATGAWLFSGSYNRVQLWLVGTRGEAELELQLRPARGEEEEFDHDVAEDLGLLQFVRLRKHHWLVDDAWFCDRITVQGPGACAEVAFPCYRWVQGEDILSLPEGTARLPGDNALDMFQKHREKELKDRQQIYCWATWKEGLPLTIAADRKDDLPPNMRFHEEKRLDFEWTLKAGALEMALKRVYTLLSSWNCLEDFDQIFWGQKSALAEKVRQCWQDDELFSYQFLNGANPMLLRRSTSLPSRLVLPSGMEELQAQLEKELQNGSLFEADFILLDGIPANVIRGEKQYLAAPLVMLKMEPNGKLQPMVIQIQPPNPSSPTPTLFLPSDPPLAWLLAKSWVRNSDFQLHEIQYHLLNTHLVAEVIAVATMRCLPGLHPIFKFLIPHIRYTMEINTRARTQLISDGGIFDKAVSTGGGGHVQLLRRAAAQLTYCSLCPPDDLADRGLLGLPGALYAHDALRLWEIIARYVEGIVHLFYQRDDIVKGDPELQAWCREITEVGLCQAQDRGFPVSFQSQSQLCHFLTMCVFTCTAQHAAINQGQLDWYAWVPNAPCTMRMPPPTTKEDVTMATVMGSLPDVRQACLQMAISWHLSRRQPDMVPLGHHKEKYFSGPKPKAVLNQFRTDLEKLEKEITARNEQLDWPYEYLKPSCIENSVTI
In words: platelet-type 12-lipoxygenase inhibition assay. In kind it is biochemical. The following applies: up to 100 μM; 30 min at 37 °C. On the procedure: as §1, §2

Test [2] deals with T4, leukocyte-type 12-lipoxygenase (Mus musculus, UniProt P39654).
T4 sequence (P39654 1-663): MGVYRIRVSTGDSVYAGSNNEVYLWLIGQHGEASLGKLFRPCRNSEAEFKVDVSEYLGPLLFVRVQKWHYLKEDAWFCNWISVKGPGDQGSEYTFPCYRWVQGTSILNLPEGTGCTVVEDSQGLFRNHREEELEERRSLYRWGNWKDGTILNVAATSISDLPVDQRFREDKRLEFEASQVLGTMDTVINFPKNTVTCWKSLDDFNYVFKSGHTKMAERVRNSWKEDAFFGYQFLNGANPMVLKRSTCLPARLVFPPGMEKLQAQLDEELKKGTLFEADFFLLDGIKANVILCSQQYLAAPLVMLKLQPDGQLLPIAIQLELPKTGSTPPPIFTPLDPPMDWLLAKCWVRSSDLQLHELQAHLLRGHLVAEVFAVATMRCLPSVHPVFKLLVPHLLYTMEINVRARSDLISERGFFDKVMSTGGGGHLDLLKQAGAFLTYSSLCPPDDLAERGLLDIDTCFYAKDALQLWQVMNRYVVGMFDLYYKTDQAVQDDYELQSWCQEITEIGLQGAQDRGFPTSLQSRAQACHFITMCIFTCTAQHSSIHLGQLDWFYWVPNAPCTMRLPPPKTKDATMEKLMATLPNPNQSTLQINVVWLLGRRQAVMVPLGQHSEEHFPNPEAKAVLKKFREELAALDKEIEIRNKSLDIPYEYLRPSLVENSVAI
Also noted: method as in PMID 23579993. Conditions: previous report; read-out: IC50, inhibition of leukocyte-type 12-lipoxygenase activity; cited from earlier work.

The text below walks through data of publication PMC6358863, “Involvement of the Hydroperoxy Group in the Irreversible Inhibition of Leukocyte-Type 12-Lipoxygenase by Monoterpene Glycosides Contained in the Qing Shan Lu Shui Tea” (Molecules, 2019).

Broadly, the IC50 is the concentration needed to halve the response being measured. In the case of `C/C(=C\CO[C@@H]1O[C@H](CO)[C@@H](OC(=O)/C=C/c2ccc(O)cc2)[C@H](O[C@@H]2O[C@@H](C)[C@H](O)[C@@H](O)[C@H]2O)[C@H]1O)C/C=C/C(C)(C)OO` [liguroside A], the half-inhibitory concentration (IC50) is 3.2 µM against 15-lipoxygenase, 21.5 µM on cyclooxygenase-1, 16.9 µM at cyclooxygenase-2 and 1.7 µM in test [2]. The “effect on platelet-type 12-lipoxygenase activity (in words)” value in test [1] is listed as “almost unaffected”.
